Patent US20240180883A1, “TREATMENT OF MIGRAINE” (Allergan Pharmaceuticals International Limited, priority 2020, published 2024)

Columns and labels:
[1] = tested on: adult patients with migraine; experiment: Phase 3 Study 1 (NCT02828020) migraine efficacy; type: in vivo, human
Text: In two randomized, double-blind, placebo-controlled, Ph. […] Of the ubrogepant-treated patients in these two studies, approximately 89% were female, 82% were white, 15% were Black, and 17% were of Hispanic or Latino ethnicity. The mean age at study entry was 41 years (range of 18-75 years).
In all studies, patients were instructed to treat a migraine with moderate to severe headache pain intensity. […] Up to 23% of patients were taking preventive medications for migraine at baseline. None of these patients were on concomitant preventive medication that act on the CGRP pathway.
The primary efficacy analyses were conducted in patients who treated a migraine with moderate to severe pain. […] Pain freedom was defined as a reduction of moderate or severe headache pain to no pain, and MBS freedom was defined as the absence of the self-identified MBS (i.e., photophobia, phonophobia, or nausea). Among patients who selected an MBS, the most commonly selected was photophobia (56%), followed by phonophobia (24%) and nausea (19%).
Table 14 also presents the results of the analyses of the percentage of patients achieving pain relief at 2 hours (defined as a reduction in migraine pain from moderate or severe to mild or none) post-dose and the percentage of patients achieving sustained pain freedom between 2 to 24 hours post-dose.

[2] = tested on: BCRP and/or P-gp; experiment: Predicted interaction with BCRP and/or P-gp inhibitors

With C[C@@H]1[C@H](c2ccccc2)C[C@H](NC(=O)c2cnc3c(c2)C[C@@]2(C3)C(=O)Nc3ncccc32)C(=O)N1CC(F)(F)F [ubrogepant, (3′S)-N-((3S,5S,6R)-6-methyl-2-oxo-5-phenyl-1-(2,2,2-trifluoroethyl)piperidin-3-yl)-2′-oxo-1′,2′,5,7-etrahydrospiro[cyclopenta[b]pyridine-6,3′-pyrrolo[2,3-b]pyridine]-3-carboxamide] the “Most Bothersome Symptom Free at 2 hours, % Responders” value ([1]; Study 1, 50 mg) was 38.6%, the “Most Bothersome Symptom Free at 2 hours, Difference from Placebo” value ([1]; Study 1, 50 mg) was 10.8% and the “Pain Relief at 2 hours, % Responders” value ([1]; Study 1, 50 mg) was 60.7%. The “Pain free at 2 hours, % Responders” value ([1]; Study 1, 50 mg) was 19.2%, the “Pain free at 2 hours, Difference from Placebo” value ([1]; Study 1, 50 mg) was 7.4% and the “Sustained pain freedom at 2-24 hours, % Responders” value ([1]; Study 1, 50 mg) was 12.7%. For the same compound, the “Most Bothersome Symptom Free at 2 hours, % Responders” value ([1]; Study 1, 100 mg) was 37.7%, the “Most Bothersome Symptom Free at 2 hours, Difference from Placebo” value ([1]; Study 1, 100 mg) was 9.9% and the “Pain Relief at 2 hours, % Responders” value ([1]; Study 1, 100 mg) was 61.4%. For the same compound, the “Pain free at 2 hours, % Responders” value ([1]; Study 1, 100 mg) was 21.2%, the “Pain free at 2 hours, Difference from Placebo” value ([1]; Study 1, 100 mg) was 9.4% and the “Sustained pain freedom at 2-24 hours, % Responders” value ([1]; Study 1, 100 mg) was 15.4%. The “incidence of photophobia and phonophobia compared to placebo” value ([1]; both doses (50 and 100 mg)) was “reduced” and the “highest predicted potential increase in exposure” value [2] was no more than 2 fold.
